Series [1] has as its system human lung cancer and breast cancer cell lines. As to conditions: cited from earlier work.
The test system of series [2] is human lung cancer tumor xenograft. As to conditions: cited from earlier work.
For series [3], the system named is human tumor cells. The settings on record: nude mouse transplanted with human tumor cells; cited from earlier work.
Series [4] is described as follows: Stability of polymorphs exposed to the air at room temperature for 12 months, purity by HPLC. It counts as physicochemical. As to conditions: for Original Purity: before exposure; for Purity (after exposed for 12 months): exposed to the air at room temperature for 12 months. On the procedure:
The obtained purity results thereof were shown s follows.
The purities were measured by using high performance liquid chromatography under the following conditions.
Chromatographic Column. […] ODS (150*4.6 mm, 5μ)
Phase A: 11.5% (v/v) of acetonitrile aqueous solution containing 0.01 mol/L of lauryl sodium sulfate and 0.0125 mol/L of dipotassium hydrogen phosphate (adjusted to pH 2.5 with phosphoric acid)
Column Temperature: 40° C.;
Detection Wavelength: 278 nm;

On to `N#C/N=C(\NCCCCCCOc1ccc(Cl)cc1)Nc1ccncc1` [N-(6-(4-chlorophenoxy)hexyl)-N′-cyano-N″-(4-pyridyl)guanidine], for which the “antiproliferative activity in vitro” value in series [1] is listed as “high antiproliferative activity”. In addition, in series [2], the “antitumor activity in the nude mice model” value was “potent antitumor activity”. Moreover, the “antitumor activity in vivo” value in series [3] was “highly potent antitumor activity”.

As to `N#C/N=C(\NCCCCCCOc1ccc(Cl)cc1)Nc1ccncc1` [Polymorph I, N-(6-(4-chlorophenoxy)hexyl)-N′-cyano-N″-(4-pyridyl)guanidine], in series [4], the “Original Purity” value stood at 98.01% and the “Purity (after exposed for 12 months)” value is listed as 97.49%.

As to `N#C/N=C(\NCCCCCCOc1ccc(Cl)cc1)Nc1ccncc1` [Polymorph V, N-(6-(4-chlorophenoxy)hexyl)-N′-cyano-N″-(4-pyridyl)guanidine], in series [4], the “Original Purity” value came out at 95.82% and the “Purity (after exposed for 12 months)” value came to 95.02%.

As for `N#C/N=C(\NCCCCCCOc1ccc(Cl)cc1)Nc1ccncc1` [Polymorph IV, N-(6-(4-chlorophenoxy)hexyl)-N′-cyano-N″-(4-pyridyl)guanidine], in series [4], the “Original Purity” value came out at 99.59% and the “Purity (after exposed for 12 months)” value was 99.45%.

With `N#C/N=C(\NCCCCCCOc1ccc(Cl)cc1)Nc1ccncc1` [Polymorph VI, N-(6-(4-chlorophenoxy)hexyl)-N′-cyano-N″-(4-pyridyl)guanidine], in series [4], the “Original Purity” value was found to be 99.55% and the “Purity (after exposed for 12 months)” value is 99.28%.

In the case of `N#C/N=C(\NCCCCCCOc1ccc(Cl)cc1)Nc1ccncc1` [Polymorph II, N-(6-(4-chlorophenoxy)hexyl)-N′-cyano-N″-(4-pyridyl)guanidine], in series [4], the “Original Purity” value turned out to be 99.45% and the “Purity (after exposed for 12 months)” value came out at 99.36%.

Turning to `N#C/N=C(\NCCCCCCOc1ccc(Cl)cc1)Nc1ccncc1` [Polymorph III, N-(6-(4-chlorophenoxy)hexyl)-N′-cyano-N″-(4-pyridyl)guanidine], in series [4], the “Original Purity” value is given as 97.83% and the “Purity (after exposed for 12 months)” value was found to be 97.56%.

The values above are taken from patent publication US20130281494A1, “POLYMORPHS OF N-(6-(4-CHLOROPHENOXY)HEXYL)-N'-CYANO-N"-(4-PYRIDYL)GUANIDINE, AND PREPARATION THEREOF AND USE THEREOF” (Tianjin Michele Sci-Tech Development Co., Ltd., priority 2010, published 2013).
